Reference: publication PMC8151276, “An Integrated Approach toward NanoBRET Tracers for Analysis of GPCR Ligand Engagement” (Molecules, 2021)

Legend:
Type in all cases: binding
[1] = target: T1, CCR2 (Homo sapiens, UniProt P41597); assay: NanoBRET screen HiBiT-CCR2 in HEK293
T1 construct: purchased Promega (in-house HiBiT-GPCR construct library, NanoBRET)
Description: (§1) Each tracer candidate was screened across the entire library of HiBiT-GPCR constructs using NanoBRET as the detection modality. As depicted in Figure 4A, the specificity of interactions was evaluated through decrease in BRET due to competitive displacement of a bound tracer by excess parental compound. Each tracer was analyzed for binding to each HiBiT-GPCR fusion in the absence and in the presence of competing parental compound. Briefly, HEK293 cells were transfected with HiBiT-GPCR constructs diluted into promoterless DNA to reduce expression and maximize translocation to the cell surface. Each tracer candidate was then screened at concentrations of 1 μM and 0.1 μM across cells expressing these fusions. Cells were treated for 1.5 h with tracer either alone or in the presence of 20 μM competing parental compound (i.e., control). BRET was measured upon addition of purified LgBiT and subsequent complementation with HiBiT genetically fused to a GPCR. The specificity of interactions was assessed through a decrease in BRET signal due to competitive displacement of the bound tracer. To further gauge the robustness of these interactions, the fold response over the control (i.e., BRETtracer/BRETcontrol) was calculated. We chose a 1.5-fold response, which translates to ≥7-fold signal over noise as the minimal threshold required to score an interaction as positive. […]. Below we highlight the screening results obtained for our exemplary fluorescent tracers based on Clozapine, Amitriptyline and AZD1283.
(§2) HiBiT-GPCR DNA constructs were diluted in 10 mM Tris pH 8 to a final concentration of 0.01 μg/μL, arrayed in 96-well plates and stored at −20 °C. For transfection, HEK293 cells were suspended in Opti-MEM (without phenol red) supplemented with 2% fetal bovine serum (Seradigm) and 100 units/mL penicillin–streptomycin (Gibco) at a final concentration of 220,000 cells/mL and dispensed into white 96-well plates at 90 μL/well. Subsequent transfections and screens were carried using an Agilent Bravo Automated Liquid Handling Platform. First, the 96-well HiBiT DNA arrays were diluted 25-fold in Opti-MEM (without serum or phenol red) to a final concentration of 0.0004 μg/μL and 20 μL of the diluted DNAs were transferred into new 96-well plates. Next, promoterless carrier DNA (1 μg/μL) was diluted 25-fold (0.04 μg/μL) and then dispensed into the diluted arrays at 20 μL/well. Following brief mixing, Viafect transfection reagent (Promega) diluted 16-fold into Opti-MEM was dispensed into the plates at 40 μL/well. After mixing by pipetting, plates were incubated for 10 min on the pipetting station deck. The DNA-transfection reagent complexes were then added to plates containing cells. To facilitate the screen, 10 μL of DNA-transfection reagent complexes were added in duplicates to the top 4 and bottom 4 rows, resulting in two identical 48-well arrays per plate. Plates with transfected cells were incubated for 18–20 h at 37 °C/5% CO2. A screen of each tracer across the entire library using two different concentrations requires duplicate plates of transfected cells. Depending on the number of tracers being screened, transfections can be scaled up using the same ratios. The next day, for each tracer, four 20× screening solutions in tracer dilution buffer (Promega) were prepared: two duplicates at final concentration of 20 μM and two duplicates at a final concentration of 2 μM. A competing unmodified compound was added to one of each duplicate at a final concentration of 400 μM. The four resulting solutions were diluted 4-fold in Opti-MEM without serum or phenol red to generate 5× solutions (5 µM and 0.5 µM tracer +/− 100 μM competing compound). To screen the library, a BioTek MultiFlo FX liquid dispenser was used to dispense 22.5 µL of tracer solution to the top 4 rows and 22.5 µL tracer + competing compound solution to the 4 bottom rows. Plates were briefly mixed on an orbital shaker and incubated for 1.5 h at room temperature. […]

[2] = target: T2, CXCR6 (Homo sapiens, UniProt O00574); assay: NanoBRET screen HiBiT-CXCR6 in HEK293
T2 construct: purchased Promega (in-house HiBiT-GPCR construct library, NanoBRET)
Description: as §1, §2

[3] = target: T3, MC4R (Homo sapiens, UniProt P32245); assay: NanoBRET screen HiBiT-MC4R in HEK293
T3 construct: purchased Promega (in-house HiBiT-GPCR construct library, NanoBRET)
Description: as §1, §2

[4] = target: T4, LGR6 (Homo sapiens, UniProt Q9HBX8); assay: NanoBRET screen HiBiT-LGR6 in HEK293
T4 construct: purchased Promega (in-house HiBiT-GPCR construct library, NanoBRET)
T4 sequence (Q9HBX8 25-967): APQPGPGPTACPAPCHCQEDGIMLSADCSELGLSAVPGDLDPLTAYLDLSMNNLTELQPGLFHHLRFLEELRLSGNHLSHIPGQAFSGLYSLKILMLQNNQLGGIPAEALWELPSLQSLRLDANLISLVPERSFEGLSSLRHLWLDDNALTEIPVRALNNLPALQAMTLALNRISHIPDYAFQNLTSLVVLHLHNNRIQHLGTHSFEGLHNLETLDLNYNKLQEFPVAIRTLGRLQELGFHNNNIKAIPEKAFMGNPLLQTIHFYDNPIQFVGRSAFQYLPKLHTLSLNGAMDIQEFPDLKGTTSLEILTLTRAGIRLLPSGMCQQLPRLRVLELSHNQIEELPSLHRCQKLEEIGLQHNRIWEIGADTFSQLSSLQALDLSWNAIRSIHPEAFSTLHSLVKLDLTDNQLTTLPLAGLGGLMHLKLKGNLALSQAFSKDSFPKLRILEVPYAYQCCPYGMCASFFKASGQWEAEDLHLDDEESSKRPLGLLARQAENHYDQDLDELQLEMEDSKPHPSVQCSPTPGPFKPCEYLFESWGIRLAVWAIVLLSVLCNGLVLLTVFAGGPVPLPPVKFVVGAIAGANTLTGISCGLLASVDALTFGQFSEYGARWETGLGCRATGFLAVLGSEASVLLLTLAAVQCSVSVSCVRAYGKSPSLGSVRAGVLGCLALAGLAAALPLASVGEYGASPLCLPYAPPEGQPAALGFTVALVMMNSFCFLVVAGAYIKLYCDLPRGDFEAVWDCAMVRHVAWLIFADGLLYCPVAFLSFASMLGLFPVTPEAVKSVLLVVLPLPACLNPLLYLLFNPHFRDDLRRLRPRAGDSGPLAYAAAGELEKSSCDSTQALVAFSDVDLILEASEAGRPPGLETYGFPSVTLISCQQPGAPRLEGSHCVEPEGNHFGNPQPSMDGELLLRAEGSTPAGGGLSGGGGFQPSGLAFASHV
Description: as §1, §2

[5] = target: T5, PDGFRB (Homo sapiens, UniProt P09619); assay: NanoBRET screen HiBiT-PDGFRB in HEK293
T5 construct: purchased Promega (in-house HiBiT-GPCR construct library, NanoBRET)
Description: as §1, §2

[6] = target: T6, MLNR (Homo sapiens, UniProt O43193); assay: NanoBRET screen HiBiT-MLNR in HEK293
T6 construct: purchased Promega (in-house HiBiT-GPCR construct library, NanoBRET)
Description: as §1, §2

[7] = tracer at 0.1μM, listed as amitriptyline-b-2-NB590
[8] = tracer at 1μM, listed as amitriptyline-b-2-NB590

T6 sequence (O43193 whole entry): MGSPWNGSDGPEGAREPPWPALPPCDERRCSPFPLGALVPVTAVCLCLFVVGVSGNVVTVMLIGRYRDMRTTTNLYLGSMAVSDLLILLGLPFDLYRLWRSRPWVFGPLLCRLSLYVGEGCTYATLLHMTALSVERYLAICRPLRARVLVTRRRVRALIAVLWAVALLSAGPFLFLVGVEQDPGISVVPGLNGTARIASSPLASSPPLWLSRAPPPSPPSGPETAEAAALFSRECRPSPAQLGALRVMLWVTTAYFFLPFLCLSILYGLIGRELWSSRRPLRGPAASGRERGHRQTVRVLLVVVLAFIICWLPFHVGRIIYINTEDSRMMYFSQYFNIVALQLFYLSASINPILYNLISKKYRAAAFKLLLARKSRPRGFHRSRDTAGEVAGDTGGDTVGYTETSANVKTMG
T2 sequence (O00574 whole entry): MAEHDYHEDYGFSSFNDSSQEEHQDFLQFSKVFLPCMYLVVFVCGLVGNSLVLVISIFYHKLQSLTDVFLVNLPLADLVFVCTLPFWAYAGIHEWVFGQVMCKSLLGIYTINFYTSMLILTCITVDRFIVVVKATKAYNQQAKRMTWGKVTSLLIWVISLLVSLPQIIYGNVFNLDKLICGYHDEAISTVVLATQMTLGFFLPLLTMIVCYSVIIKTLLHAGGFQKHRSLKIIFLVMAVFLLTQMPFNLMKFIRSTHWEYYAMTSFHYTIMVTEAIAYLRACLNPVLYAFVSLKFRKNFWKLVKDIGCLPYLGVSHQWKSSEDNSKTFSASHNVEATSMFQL
T3 sequence (P32245 whole entry): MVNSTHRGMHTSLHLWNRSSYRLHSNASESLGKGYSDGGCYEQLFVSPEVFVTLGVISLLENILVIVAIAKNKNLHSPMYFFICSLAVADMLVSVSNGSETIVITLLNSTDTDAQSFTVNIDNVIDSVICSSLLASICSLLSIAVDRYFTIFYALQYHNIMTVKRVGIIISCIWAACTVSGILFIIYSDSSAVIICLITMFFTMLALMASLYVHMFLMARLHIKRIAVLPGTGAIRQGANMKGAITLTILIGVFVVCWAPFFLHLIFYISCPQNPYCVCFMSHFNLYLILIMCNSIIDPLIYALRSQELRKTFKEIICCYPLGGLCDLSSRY
T5 sequence (P09619 33-1106): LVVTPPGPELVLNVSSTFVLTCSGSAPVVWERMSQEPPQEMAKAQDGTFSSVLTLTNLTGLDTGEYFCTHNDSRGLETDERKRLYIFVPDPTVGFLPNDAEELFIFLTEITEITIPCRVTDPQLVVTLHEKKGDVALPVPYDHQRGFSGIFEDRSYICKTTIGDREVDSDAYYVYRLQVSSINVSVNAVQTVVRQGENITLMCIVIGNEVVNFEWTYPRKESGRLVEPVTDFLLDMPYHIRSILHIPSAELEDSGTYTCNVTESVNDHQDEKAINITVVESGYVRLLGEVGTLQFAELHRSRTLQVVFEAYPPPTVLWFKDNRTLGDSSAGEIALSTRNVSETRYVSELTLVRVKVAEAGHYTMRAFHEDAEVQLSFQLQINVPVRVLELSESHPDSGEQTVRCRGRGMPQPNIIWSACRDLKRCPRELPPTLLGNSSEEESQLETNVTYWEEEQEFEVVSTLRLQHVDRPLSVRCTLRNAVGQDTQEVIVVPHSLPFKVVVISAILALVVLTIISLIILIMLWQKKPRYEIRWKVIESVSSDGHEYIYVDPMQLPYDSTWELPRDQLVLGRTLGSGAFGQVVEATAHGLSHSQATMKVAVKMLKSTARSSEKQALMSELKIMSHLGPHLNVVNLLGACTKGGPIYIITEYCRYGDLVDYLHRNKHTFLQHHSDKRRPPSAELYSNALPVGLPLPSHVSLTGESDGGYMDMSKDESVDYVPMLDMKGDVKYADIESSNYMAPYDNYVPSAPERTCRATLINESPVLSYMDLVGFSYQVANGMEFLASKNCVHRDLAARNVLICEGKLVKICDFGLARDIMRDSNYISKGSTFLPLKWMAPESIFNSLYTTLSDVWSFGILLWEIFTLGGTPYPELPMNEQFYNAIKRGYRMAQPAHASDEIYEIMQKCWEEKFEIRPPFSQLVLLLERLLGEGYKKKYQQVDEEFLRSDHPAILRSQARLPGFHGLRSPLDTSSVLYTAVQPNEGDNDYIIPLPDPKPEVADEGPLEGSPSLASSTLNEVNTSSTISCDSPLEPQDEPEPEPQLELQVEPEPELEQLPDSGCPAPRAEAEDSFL
T1 sequence (P41597 whole entry): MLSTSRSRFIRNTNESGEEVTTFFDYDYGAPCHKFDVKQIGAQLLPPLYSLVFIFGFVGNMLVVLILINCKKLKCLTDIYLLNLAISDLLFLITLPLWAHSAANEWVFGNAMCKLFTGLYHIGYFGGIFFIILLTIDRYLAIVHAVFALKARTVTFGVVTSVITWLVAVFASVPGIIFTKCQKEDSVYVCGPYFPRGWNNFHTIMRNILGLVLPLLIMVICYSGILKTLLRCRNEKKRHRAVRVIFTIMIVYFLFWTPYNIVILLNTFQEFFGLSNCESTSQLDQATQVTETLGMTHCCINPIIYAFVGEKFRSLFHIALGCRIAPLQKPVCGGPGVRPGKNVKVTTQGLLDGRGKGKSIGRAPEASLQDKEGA

Compound: CCOC(=O)c1cc(C#N)c(N2CCC(C(=O)NS(=O)(=O)Cc3ccccc3/C=C/C(=O)NCCNC(=O)CCc3ccc4n3[B-](F)(F)[N+]3=C(c5ccc[nH]5)C=CC3=C4)CC2)nc1C [AZD1283-1-NB590]
- NanoBRET Fold Response ([1]; CCR2, 0.1μM): 0.93
- NanoBRET Fold Response ([1]; CCR2, 1μM): 1.04
- NanoBRET Fold Response ([2]; CXCR6, 0.1μM): 0.89
- NanoBRET Fold Response ([2]; CXCR6, 1μM): 0.29
- NanoBRET Fold Response ([3]; MC4R, 0.1μM): 0.98
- NanoBRET Fold Response ([3]; MC4R, 1μM): 1.01
- NanoBRET Fold Response ([4]; LGR6, 0.1μM): 1.27
- NanoBRET Fold Response ([4]; LGR6, 1μM): 0.90
- NanoBRET Fold Response ([5]; PDGFRB, 0.1μM): 1.10
- NanoBRET Fold Response ([5]; PDGFRB, 1μM): 1.16
- NanoBRET Fold Response ([6]; MLNR, 0.1μM): 1.06
- NanoBRET Fold Response ([6]; MLNR, 1μM): 1.01

Compound: N#CN=C(NCCCOc1cccc(CN2CCCCC2)c1)NCCNC(=O)CCOCCOCCOCCOCCNC(=O)CCc1ccc2n1[B-](F)(F)[N+]1=C(c3ccc[nH]3)C=CC1=C2 [Aminopotentidine-2-NB590]
- NanoBRET Fold Response ([1]; CCR2, tracer 0.1μM): 0.93
- NanoBRET Fold Response ([1]; CCR2, tracer 1μM): 0.98
- NanoBRET Fold Response ([2]; CXCR6, tracer 0.1μM): 1.06
- NanoBRET Fold Response ([2]; CXCR6, tracer 1μM): 1.03
- NanoBRET Fold Response ([3]; MC4R, tracer 0.1μM): 0.99
- NanoBRET Fold Response ([3]; MC4R, tracer 1μM): 0.89
- NanoBRET Fold Response ([4]; LGR6, tracer 0.1μM): 0.96
- NanoBRET Fold Response ([4]; LGR6, tracer 1μM): 0.88
- NanoBRET Fold Response ([5]; PDGFRB, tracer 0.1μM): 0.90
- NanoBRET Fold Response ([5]; PDGFRB, tracer 1μM): 1.01
- NanoBRET Fold Response ([6]; MLNR, tracer 0.1μM): 0.97
- NanoBRET Fold Response ([6]; MLNR, tracer 1μM): 1.00

Compound: CN(C)CCC=C1c2ccccc2CCc2ccc(C(=O)NCCNC(=O)CCOCCOCCOCCOCCNC(=O)CCc3ccc4n3[B-](F)(F)[N+]3=C(c5ccc[nH]5)C=CC3=C4)cc21 [Amitriptyline-a-2-NB590]
- NanoBRET Fold Response ([1]; tracer at 0.1μM): 1.19
- NanoBRET Fold Response ([1]; tracer at 1μM): 1.05
- NanoBRET Fold Response ([2]; tracer at 0.1μM): 1.07
- NanoBRET Fold Response ([2]; tracer at 1μM): 0.94
- NanoBRET Fold Response ([4]; tracer at 0.1μM): 0.93
- NanoBRET Fold Response ([4]; tracer at 1μM): 0.97
- NanoBRET Fold Response ([5]; tracer at 0.1μM): 1.17
- NanoBRET Fold Response ([5]; tracer at 1μM): 1.06
- NanoBRET Fold Response ([6]; tracer at 0.1μM): 1.05
- NanoBRET Fold Response ([6]; tracer at 1μM): 1.05

Compound: CN(C)CCC=C1c2ccccc2CCc2ccc(C(=O)NCCNC(=O)CCOCCOCCOCCOCCNC(=O)CCc3ccc4n3[B-](F)(F)[N+]3=C(c5ccc[nH]5)C=CC3=C4)cc21 [Amitriptyline-b-2-NB590]
- NanoBRET Fold Response ([1]; tracer at 0.1μM): 0.99
- NanoBRET Fold Response ([1]; tracer at 1μM): 0.89
- NanoBRET Fold Response [2, 7]: 0.95
- NanoBRET Fold Response [2, 8]: 1.02
- NanoBRET Fold Response ([3]; tracer at 0.1μM): 1.00
- NanoBRET Fold Response ([3]; tracer at 1μM): 1.02
- NanoBRET Fold Response [4, 7]: 0.92
- NanoBRET Fold Response [4, 8]: 1.14
- NanoBRET Fold Response ([5]; tracer at 0.1μM): 0.97
- NanoBRET Fold Response [5, 8]: 0.99
- NanoBRET Fold Response [6, 7]: 1.19
